From US7071207B2, “Preparation and use of 1,5,6,7-tetrahydropyrrolo[3,2-c]pyridine derivatives for treatment of obesity” (Bayer Pharmaceuticals Corporation, priority 2001, dated 2006)
Counter-ions that a name gives are not always drawn.

Columns and labels:
[1] = Measurement of brain exposure; assay type: in vivo; details: male, obese Zucker fa/fa, rat, brain homogenate, oral; 10 mg/kg p.o.; brains collected at 2 hours post-dosing; read-out: brain homogenate exposure level
Procedure: Measurement of Brain Exposure
Male obese Zucker fa/fa rats are administered compounds, typically at 10 mg/kg p.o., and then brains are collected at 2 hours post-dosing for determination of brain concentration. Brains are weighed and homogenized with 4 mL 10 mM ammonium acetate buffer (pH 3), and the brain tissue homogenate samples are extracted via protein precipitation with acetonitrile. Samples are vortexed, centrifuged, and analyzed by liquid chromatography utilizing mass spectrometer selective detection (LC/MS/MS) using the heated nebulizer interface. Samples are quantitated using weighted (1/x^2) linear internal standard calibration curve.

obese Zucker fa/fa rats = assay: Chronic feeding assay (body weight, food and water consumption); assay type: in vivo, rat; details: once per day at 10 mg/kg p.o.; day 6 of treatment
Excerpt: Evaluation of Compound's Efficacy on the Reduction of Body Weight and Food and Water Consumption in Obese Zucker fa/fa Rats
The purpose of this protocol is to determine the effect of chronic administration of an unknown compound on body weight and food and water consumption in obese Zucker fa/fa rats. Obese Zucker fa/fa rats are frequently used in the determination of compound efficacy in the reduction of body weight. This animal model has been successfully used in the identification and characterization of the efficacy profile of compounds that are or have been used in the management of body weight in obese humans (see, e.g., Al-Barazanji et al., Obes Res. 8:317–323, 2000; Assimacopoulos-Jeannet et al., Am. J. Physiol. 260(2 Pt 2):R278–283, 1991; Dryden et al., Horm. Metab. Res. 31:363–366, 1999; Edwards and Stevens, Pharmacol. Biochem. Behav. 47:865–872, 1994; Grinker et al., Pharmacol. Biochem. Behav. 12:265–275, 1980).
A typical study includes 60–80 male Zucker fa/fa (n=10/treatment group) with an average body weight of approximately 550 g. […]
Animals are orally gavaged (2 mL/kg) daily before the dark phase of the LD/cycle for a pre-determined number of days (typically 6–14 days) with their assigned dose/compound. At this time, body weight, food and water consumption are measured. On the final day, animals are euthanized by CO2 inhalation, and the body weight is measured.

Structure (SMILES)	concentration at 2 h [1]	increase in body weight from baseline (obese Zucker fa/fa rats)
O[C@@H]1CCCC[C@H]1N1CCc2c(cc(-c3ccc(Cl)cc3)n2-c2ccccc2Cl)C1 (relative stereo) [entry 18, trans-2-[1-(2-chlorophenyl)-2-(4-chlorophenyl)-1,4,6,7-tetrahydro-5H-pyrrolo[3,2-c]pyridin-5-yl]cyclohexanol hydrochloride]	> 500 nM	
COc1ccc(-c2c(C)c3c(n2-c2ccccc2Cl)CCN(N2CCCCC2)C3=O)cc1.Cl [entry 189, 1-(2-chlorophenyl)-2-(4-methoxyphenyl)-3-methyl-5-(1-piperidinyl)-1,5,6,7-tetrahydro-4H-pyrrolo[3,2-c]pyridin-4-one hydrochloride]		no increase in body weight from baseline
